Each structure is given as a SMILES string. Bounds are passed on as bounds.

Test [1] concerns the target T1, human alpha-2A-adrenoceptor (Homo sapiens, UniProt P08913).
T1 construct: expressed in transfected cells
T1 sequence (P08913 1-465): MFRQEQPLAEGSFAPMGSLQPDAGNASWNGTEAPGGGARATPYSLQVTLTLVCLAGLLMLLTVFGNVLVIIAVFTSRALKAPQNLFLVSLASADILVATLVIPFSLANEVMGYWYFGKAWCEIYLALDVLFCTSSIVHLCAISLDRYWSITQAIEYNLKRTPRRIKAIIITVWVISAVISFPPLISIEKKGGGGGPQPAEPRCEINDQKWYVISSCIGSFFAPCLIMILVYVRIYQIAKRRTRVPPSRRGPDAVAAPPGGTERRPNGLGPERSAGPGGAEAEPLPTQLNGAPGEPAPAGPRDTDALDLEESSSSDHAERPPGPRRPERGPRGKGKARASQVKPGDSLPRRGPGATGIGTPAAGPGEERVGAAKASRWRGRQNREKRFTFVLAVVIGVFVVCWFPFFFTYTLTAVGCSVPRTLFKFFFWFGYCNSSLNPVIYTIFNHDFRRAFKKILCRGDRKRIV
The test is described as follows: Human alpha-2-adrenoceptor binding affinity, 3H-rauwolscine competition binding. To be noted: Mean ± SEM, membranes of Shionogi S115 cells transfected with human α2A. The method, then:
(§1) Results expressed in the form of “>” means that no numerical values for Ki's could be established due to lack of displacement or due to incomplete competition curves.
(§2) Human Alpha-2-adrenoceptor Binding Affinity
(§3) After 30 min at room temperature, incubations were terminated by rapid vacuum filtration through GF/B glass fiber filter and three 5 ml washes with ice-cold incubation buffer. The filters were then dried, impregnated with scintillate and their radioactivity was measured by scintillation counting. The analysis of the experiments was carried out by non-linear least square curve fitting. Experimentally determined IC50 values were converted to Ki's by making use of the Cheng-Prusoff equation (Cheng and Prusoff, 1973). Experiments were repeated a minimum of three times. to the incubation mixture. After an additional 60 min at room temperature, the incubation was terminated by rapid vacuum filtration through glass fibre filter. Filters were washed three times with 5 ml ice cold wash buffer (20 mM Tris, 5 mM MgCl2, 1 mM EDTA pH 7.4 at room temperature), dried and counted for radioactivity in a scintiallation counter. Analysis of experiments was carried out by non-linear least square fitting. Results are based on a minimum of three experiments.

In test [2] the target is T1, human alpha-2A-adrenoceptor. The test is described as follows: Antagonist activity: inhibition of epinephrine-stimulated 35S-GTPγS binding. To be noted: Mean ± SEM; CHO cell membranes, human α2A; 5 μM epinephrine; read-out: KB alpha-2A antagonist effect. The class given is biochemical. The protocol: (§4) Antagonist Activity on Human Alpha-2-adrenoceptor Subtypes
Membranes (2-6 μg of protein per sample) and 12 concentrations of test compound were preincubated for 30 min with a fixed concentration fo epinephrine (5 μM for α2A, 15 μM for α2B, 5 μM for α2C) in 50 mM Tris, 5 mM MgCl2, 150 mM NaCl, 1 mM DTT, 1 mM EDTA, 10 μM GDP, 30 μM ascorbic acid, pH 7.4 at room temperature. Binding of radiolabel was started by the addition of trace amounts of ^35S-GTPγS (0.08-0.15 nM, specific activity 1250 Ci/mmol)
as §3
A general note: GTPγS resists hydrolysis and so accumulates on activated G proteins.

In test [3] the target is T2, human alpha-2C-adrenoceptor (Homo sapiens, UniProt P18825).
T2 construct: expressed in transfected cells
T2 sequence (P18825 1-462): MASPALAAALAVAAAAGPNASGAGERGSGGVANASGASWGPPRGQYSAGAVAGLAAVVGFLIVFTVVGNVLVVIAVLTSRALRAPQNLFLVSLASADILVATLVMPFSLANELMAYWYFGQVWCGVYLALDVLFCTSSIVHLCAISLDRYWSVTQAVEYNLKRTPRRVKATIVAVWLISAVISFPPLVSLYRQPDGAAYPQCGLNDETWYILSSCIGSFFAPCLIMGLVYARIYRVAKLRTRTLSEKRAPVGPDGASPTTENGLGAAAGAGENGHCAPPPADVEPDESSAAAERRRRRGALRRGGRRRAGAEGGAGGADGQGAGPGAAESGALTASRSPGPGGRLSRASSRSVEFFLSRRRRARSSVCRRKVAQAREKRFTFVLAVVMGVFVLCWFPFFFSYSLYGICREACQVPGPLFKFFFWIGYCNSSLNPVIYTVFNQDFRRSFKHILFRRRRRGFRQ
Description: Human alpha-2-adrenoceptor binding affinity, 3H-rauwolscine competition binding. To be noted: Mean ± SEM, membranes of Shionogi S115 cells transfected with human α2C. The method, then: as §1, §2
as §3, with “Experimentally determined IC50 values were converted to Ki's by making use of the Cheng-Prusoff equation (Cheng and Prusoff, 1973).” left out

Test [4] concerns the target T3, human alpha-2B-adrenoceptor (Homo sapiens, UniProt P18089).
T3 construct: expressed in transfected cells
T3 sequence (P18089 1-450): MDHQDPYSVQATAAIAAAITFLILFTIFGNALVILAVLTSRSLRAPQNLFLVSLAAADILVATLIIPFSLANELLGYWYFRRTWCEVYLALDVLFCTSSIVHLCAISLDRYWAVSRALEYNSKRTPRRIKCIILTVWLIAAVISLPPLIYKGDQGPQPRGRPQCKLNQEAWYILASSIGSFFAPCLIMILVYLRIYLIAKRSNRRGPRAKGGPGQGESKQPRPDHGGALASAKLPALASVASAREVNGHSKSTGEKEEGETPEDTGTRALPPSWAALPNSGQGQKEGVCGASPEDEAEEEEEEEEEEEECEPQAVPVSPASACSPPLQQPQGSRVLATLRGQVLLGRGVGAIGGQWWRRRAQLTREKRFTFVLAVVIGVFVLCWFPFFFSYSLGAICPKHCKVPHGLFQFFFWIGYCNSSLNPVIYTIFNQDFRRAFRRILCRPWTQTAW
The description is as above. The following applies: Mean ± SEM, membranes of Shionogi S115 cells transfected with human α2B. The protocol: as §1, §2
as §3, with “Experimentally determined IC50 values were converted to Ki's by making use of the Cheng-Prusoff equation (Cheng and Prusoff, 1973).” left out

Test [5] deals with T2, human alpha-2C-adrenoceptor. Description: Antagonist activity: inhibition of epinephrine-stimulated 35S-GTPγS binding. The test is classed as biochemical. The following applies: Mean ± SEM; CHO cell membranes, human α2C; 5 μM epinephrine; read-out: KB alpha-2C antagonist effect. The protocol:
as §4
as §3, with “Experimentally determined IC50 values were converted to Ki's by making use of the Cheng-Prusoff equation (Cheng and Prusoff, 1973).” left out

Test [6] has as its target T3, human alpha-2B-adrenoceptor. The description is as above. The test is classed as biochemical. The following applies: Mean ± SEM; CHO cell membranes, human α2B; 15 μM epinephrine; read-out: KB alpha-2B antagonist effect. The method, then:
as §4
as §3, with “Experimentally determined IC50 values were converted to Ki's by making use of the Cheng-Prusoff equation (Cheng and Prusoff, 1973).” left out

For the compound `COc1cccc(CNc2ccc(S(=O)(=O)Nc3nc(C)cc(C)n3)cc2)c1` [Compound E, N-(4,6-Dimethylpyrimidin-2yl-)4(3-methoxybenzylamino)-benzenesulfonamide], the figures for the Ki in test [1], in test [3] and in test [4] were more than 5.1 µM, more than 10 µM and 0.02 ± 0.004 µM, respectively. The Kb in test [2] is 7.9 ± 3.1 µM; in test [5], 7.3 ± 1.1 µM; in test [6], 0.029 ± 0.005 µM.

Regarding `COc1ccccc1CCNc1ccc(S(=O)(=O)Nc2nc(C)cc(C)n2)cc1` [Compound G, N-(4,6-Dimethylpyrimidin-2-yl)-4-[2-(2-methoxyphenyl)-ethylamino]-benzenesulfonamide], the Ki in test [1] was 2.2 ± 0.6 µM; in test [3], more than 10 µM; in test [4], 0.032 ± 0.005 µM. In addition, the Kb is 3.2 ± 0.5 µM in test [2], 4.7 ± 1.8 µM in test [5] and 0.086 ± 0.064 µM in test [6].

On to `Cc1cc(C)nc(NS(=O)(=O)c2ccc(NCc3ccc4ccccc4c3)cc2)n1` [Compound D, N-(4,6-Dimethylpyrimidin-2-yl)-4-[(naphthalen-2-ylmethyl)-amino]-benzenesulfonamide], for which the values for the Ki in test [1], in test [3] and in test [4] were more than 10 µM, more than 10 µM and 0.44 ± 0.07 µM, respectively.

As to `CCn1cc(CNc2ccc(S(=O)(=O)Nc3nc(C)cc(C)n3)cc2)c2ccccc21` [Compound F, N-(4,6-Dimethylpyrimidin-2-yl)-4-[(1-ethyl-1H-indol-3-ylmethyl)-amino]-benzenesulfonamide], the figures for the Ki in test [1], in test [3] and in test [4] were more than 4.3 µM, more than 10 µM and 0.043 ± 0.007 µM, respectively. Further, the Kb in test [2] came out at 8.7 ± 1.1 µM; in test [5], 12 ± 2 µM; in test [6] it was 0.24 ± 0.06 µM.

Regarding `Cc1cc(C)nc(NS(=O)(=O)c2ccc(NCc3nc4ccccc4n3CC(C)C)cc2)n1` [Compound A, N-(4,6-Dimethylpyrimidin-2-yl)-4-[(1-isobutyl-1H-benzimidazol-2-ylmethyl)-amino]-benzenesulfonamide], the Ki in test [1] is more than 13 µM; in test [3], more than 30 µM; in test [4], 0.16 ± 0.02 µM.

As to `Cc1cc(C)nc(NS(=O)(=O)c2ccc(NC(c3ccccc3)c3ccccc3)cc2)n1` [Compound H, 4-(Benzhydrylamino)-N-(4,6-dimethylpyrimidin-2-yl)-benzenesulfonamide], the values for the Ki in test [1], in test [3] and in test [4] were more than 30 µM, more than 30 µM and 8 ± 0.5 µM, respectively.

As to `Cc1cc(C)nc(NS(=O)(=O)c2ccc(NCc3ccccc3C)cc2)n1` [Compound B, N-(4,6-Dimethylpyrimidin-2-yl)-4-(2-methylbenzylamino)-benzenesulfonamide], the Ki in test [1] was more than 4.5 µM; in test [3], more than 10 µM; in test [4] it was 0.034 ± 0.002 µM. Besides, the Kb came out at 14.5 ± 3.6 µM in test [2], 5.7 ± 0.7 µM in test [5] and 0.075 ± 0.009 µM in test [6].

As to `Cc1cc(C)nc(NS(=O)(=O)c2ccc(NCc3c(Cl)cccc3Cl)cc2)n1` [Compound C, 4-(2,6Dichlorobenzylamino)-N-(4,6-dimethylpyrimidin-2-yl)-benzenesulfonamide], the Ki in test [1] is 2 ± 0.4 µM; in test [3], more than 10 µM. Further, the Kb in test [2] came to 5.4 ± 1.4 µM; in test [5] it was 6.3 ± 1.4 µM.

Broadly, the Ki is the equilibrium dissociation constant of an inhibitor or competing ligand from its target. Usually Kb stands for the affinity of an antagonist, worked out from how it opposes an agonist.

The values above are taken from patent US6767909B2, “Compounds useful for treatment or prevention of disease mediated by alpha-2B-adrenoceptor” (Oy Juvantia Pharma Ltd., priority 2001, dated 2004).
